Measured values: patent US20230372301A1, “TREATMENTS WITH NIROGACESTAT” (SpringWorks Therapeutics, Inc., priority 2022, published 2023)
Structures can show the parent of a compound that is named as a salt. Where two headings read alike, the source gives them in different places.

What was measured:
[1] = Pharmacokinetics of 150 mg nirogacestat dihydrobromide twice daily at steady state exposure; type: in vivo, human; details: 150 mg (free base equivalent dose) twice daily, oral
Experimental: The pharmacokinetic parameters for oral doses of 150 mg (free base equivalent dose) nirogacestat dihydrobromide twice daily at steady state exposure is provided in Table 2E below.

[2] = Pharmacokinetics of single oral doses of nirogacestat dihydrobromide; type: in vivo, human; details: for AUC(0-inf) / AUC(0-t) / Cmax / half-life / Tmax / Vd/F: human, in vivo, po
[3] = human, in vivo, steady state exposure
[4] = COHORT 1: 150 mg (1 × 150 mg), Period 2
[5] = COHORT 1: 150 mg (3 × 50 mg), Period 1

CCC[C@H](N[C@H]1CCc2cc(F)cc(F)c2C1)C(=O)Nc1cn(C(C)(C)CNCC(C)(C)C)cn1 [nirogacestat dihydrobromide]
Time to steady-state [1]: Approximately 8 days
AUC [1, 3]: 6430 ng·h/mL
Cmax [1, 3]: 1250 ng/mL
CL/F, Geometric Mean [2, 4]: 49.7 L/h
CL/F, Median [2, 4]: 48.4 L/h
CL/F, Geometric Mean [2, 5]: 49.2 L/h
CL/F, Median [2, 5]: 57.0 L/h
CL/F, Geometric Mean ([2]; COHORT 2: 100 mg, Period 1): 56.1 L/h
CL/F, Median ([2]; COHORT 2: 100 mg, Period 1): 58.4 L/h
CL/F, Geometric Mean ([2]; COHORT 3: 50 mg, Period 1): 87.6 L/h
CL/F, Median ([2]; COHORT 3: 50 mg, Period 1): 74.9 L/h
AUC(0-inf) ([2]; 50 mg, COHORT 3: 50 mg, Period 1, read-out: AUCinf, Geometric Mean): 571 ng·h/mL
AUC(0-inf) ([2]; 50 mg, COHORT 3: 50 mg, Period 1, read-out: AUCinf, Median): 674 ng·h/mL
AUC(0-t) ([2]; 50 mg, COHORT 3: 50 mg, Period 1, read-out: AUClast, Geometric Mean): 545 ng·h/mL
AUC(0-t) ([2]; 50 mg, COHORT 3: 50 mg, Period 1, read-out: AUClast, Median): 653 ng·h/mL
Cmax ([2]; 50 mg, COHORT 3: 50 mg, Period 1, read-out: Cmax, Geometric Mean): 183 ng/mL
Cmax ([2]; 50 mg, COHORT 3: 50 mg, Period 1, read-out: Cmax, Median): 209 ng/mL
half-life ([2]; 50 mg, COHORT 3: 50 mg, Period 1, read-out: Half-life, Geometric Mean (converted)): 19.3 h
half-life ([2]; 50 mg, COHORT 3: 50 mg, Period 1, read-out: Half-life, Median (converted)): 23.3 h
Tmax ([2]; 50 mg, COHORT 3: 50 mg, Period 1, read-out: Tmax, Geometric Mean): 0.829 h
Tmax ([2]; 50 mg, COHORT 3: 50 mg, Period 1, read-out: Tmax, Median): 1 h
Vd/F ([2]; 50 mg, COHORT 3: 50 mg, Period 1, read-out: Vz/F, Geometric Mean): 2440 L
Vd/F ([2]; 50 mg, COHORT 3: 50 mg, Period 1, read-out: Vz/F, Median): 2730 L
AUC(0-inf) ([2]; 100 mg, COHORT 2: 100 mg, Period 1, read-out: AUCinf, Geometric Mean): 1780 ng·h/mL
AUC(0-inf) ([2]; 100 mg, COHORT 2: 100 mg, Period 1, read-out: AUCinf, Median): 1710 ng·h/mL
AUC(0-t) ([2]; 100 mg, COHORT 2: 100 mg, Period 1, read-out: AUClast, Geometric Mean): 1720 ng·h/mL
AUC(0-t) ([2]; 100 mg, COHORT 2: 100 mg, Period 1, read-out: AUClast, Median): 1660 ng·h/mL
Cmax ([2]; 100 mg, COHORT 2: 100 mg, Period 1, read-out: Cmax, Geometric Mean): 435 ng/mL
Cmax ([2]; 100 mg, COHORT 2: 100 mg, Period 1, read-out: Cmax, Median): 433 ng/mL
half-life ([2]; 100 mg, COHORT 2: 100 mg, Period 1, read-out: Half-life, Geometric Mean (converted)): 25.2 h
half-life ([2]; 100 mg, COHORT 2: 100 mg, Period 1, read-out: Half-life, Median (converted)): 24.4 h
Tmax ([2]; 100 mg, COHORT 2: 100 mg, Period 1, read-out: Tmax, Geometric Mean): 1.19 h
Tmax ([2]; 100 mg, COHORT 2: 100 mg, Period 1, read-out: Tmax, Median): 1.28 h
Vd/F ([2]; 100 mg, COHORT 2: 100 mg, Period 1, read-out: Vz/F, Geometric Mean): 2040 L
Vd/F ([2]; 100 mg, COHORT 2: 100 mg, Period 1, read-out: Vz/F, Median): 2040 L
AUC(0-inf) ([2]; 150 mg, COHORT 1: 150 mg (1 × 150 mg), Period 2, read-out: AUCinf, Geometric Mean): 3020 ng·h/mL
AUC(0-inf) ([2]; 150 mg, COHORT 1: 150 mg (1 × 150 mg), Period 2, read-out: AUCinf, Median): 3100 ng·h/mL
AUC(0-t) ([2]; 150 mg, COHORT 1: 150 mg (1 × 150 mg), Period 2, read-out: AUClast, Geometric Mean): 2930 ng·h/mL
AUC(0-t) ([2]; 150 mg, COHORT 1: 150 mg (1 × 150 mg), Period 2, read-out: AUClast, Median): 3040 ng·h/mL
Cmax ([2]; 150 mg, COHORT 1: 150 mg (1 × 150 mg), Period 2, read-out: Cmax, Geometric Mean): 686 ng/mL
Cmax ([2]; 150 mg, COHORT 1: 150 mg (1 × 150 mg), Period 2, read-out: Cmax, Median): 662 ng/mL
half-life ([2]; 150 mg, COHORT 1: 150 mg (1 × 150 mg), Period 2, read-out: Half-life, Geometric Mean (converted)): 24.7 h
half-life ([2]; 150 mg, COHORT 1: 150 mg (1 × 150 mg), Period 2, read-out: Half-life, Median (converted)): 26.3 h
Tmax ([2]; 150 mg, COHORT 1: 150 mg (1 × 150 mg), Period 2, read-out: Tmax, Geometric Mean): 1.2 h
Tmax ([2]; 150 mg, COHORT 1: 150 mg (1 × 150 mg), Period 2, read-out: Tmax, Median): 1.5 h
Vd/F ([2]; 150 mg, COHORT 1: 150 mg (1 × 150 mg), Period 2, read-out: Vz/F, Geometric Mean): 1770 L
Vd/F ([2]; 150 mg, COHORT 1: 150 mg (1 × 150 mg), Period 2, read-out: Vz/F, Median): 1720 L
AUC(0-inf) ([2]; 150 mg, COHORT 1: 150 mg (3 × 50 mg), Period 1, read-out: AUCinf, Geometric Mean): 3050 ng·h/mL
AUC(0-inf) ([2]; 150 mg, COHORT 1: 150 mg (3 × 50 mg), Period 1, read-out: AUCinf, Median): 2640 ng·h/mL
AUC(0-t) ([2]; 150 mg, COHORT 1: 150 mg (3 × 50 mg), Period 1, read-out: AUClast, Geometric Mean): 2960 ng·h/mL
AUC(0-t) ([2]; 150 mg, COHORT 1: 150 mg (3 × 50 mg), Period 1, read-out: AUClast, Median): 2580 ng·h/mL
Cmax ([2]; 150 mg, COHORT 1: 150 mg (3 × 50 mg), Period 1, read-out: Cmax, Geometric Mean): 733 ng/mL
Cmax ([2]; 150 mg, COHORT 1: 150 mg (3 × 50 mg), Period 1, read-out: Cmax, Median): 697 ng/mL
half-life ([2]; 150 mg, COHORT 1: 150 mg (3 × 50 mg), Period 1, read-out: Half-life, Geometric Mean (converted)): 25 h
half-life ([2]; 150 mg, COHORT 1: 150 mg (3 × 50 mg), Period 1, read-out: Half-life, Median (converted)): 26.3 h
Tmax ([2]; 150 mg, COHORT 1: 150 mg (3 × 50 mg), Period 1, read-out: Tmax, Geometric Mean): 1.34 h
Tmax ([2]; 150 mg, COHORT 1: 150 mg (3 × 50 mg), Period 1, read-out: Tmax, Median): 1.49 h
Vd/F ([2]; 150 mg, COHORT 1: 150 mg (3 × 50 mg), Period 1, read-out: Vz/F, Geometric Mean): 1770 L
Vd/F ([2]; 150 mg, COHORT 1: 150 mg (3 × 50 mg), Period 1, read-out: Vz/F, Median): 1830 L
